Tests used:
[1] = target: T1, Cholecystokinin receptor type A (Rattus norvegicus, UniProt P30551); test: (§1) Inhibition of binding of [125I]CCK-8 to cholecystokinin type A receptor in rat pancreatic tissue
T1 sequence (P30551 whole entry): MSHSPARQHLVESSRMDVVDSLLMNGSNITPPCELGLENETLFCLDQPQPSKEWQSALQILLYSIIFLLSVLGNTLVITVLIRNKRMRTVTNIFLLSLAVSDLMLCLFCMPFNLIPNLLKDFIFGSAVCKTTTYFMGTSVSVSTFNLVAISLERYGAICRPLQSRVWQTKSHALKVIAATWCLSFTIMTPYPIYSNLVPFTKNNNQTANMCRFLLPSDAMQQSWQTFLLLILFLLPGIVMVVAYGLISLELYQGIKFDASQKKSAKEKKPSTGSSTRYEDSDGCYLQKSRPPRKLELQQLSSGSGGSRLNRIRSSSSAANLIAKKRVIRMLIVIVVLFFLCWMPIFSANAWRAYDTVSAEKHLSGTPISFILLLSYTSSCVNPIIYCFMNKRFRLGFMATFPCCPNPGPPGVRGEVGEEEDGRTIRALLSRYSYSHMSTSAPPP

[2] = species: Cavia porcellus; test: Selectivity ratio between CCK-B and CCK-A receptor; design: reference not given here
[3] = Bioavailability in rat after 30 minutes at an oral dose of 2.5 mg/kg; assay type: ADME, organism-based; conditions: plasma
[4] = Bioavailability in rat after 120 minutes at an oral dose of 2.5 mg/kg; assay type: ADME, organism-based; conditions: plasma
[5] = target: T2, Cholecystokinin receptor type A (Rattus norvegicus) (UniProt P30551); test: as §1; design: concentration or dose not given beside the values; conditions: concentration not given here
T2 sequence (whole entry): T1 sequence (P30551 whole entry)

[6] = Inhibition of binding of [125I]-CCK-8 to the cholecystokinin type B receptor
[7] = tested on: Mus musculus; test: Effective dose required to antagonise pentagastrin stimulated acid secretion in mouse when administered iv 5 min prior to pentagastrin; assay type: functional
[8] = tested on: Mus musculus; test: Effective dose required to antagonise pentagastrin stimulated acid secretion in mouse when administered iv 60-80 min prior to pentagastrin; assay type: functional
[9] = tested on: Mus musculus; test: Effective dose required to antagonise pentagastrin stimulated acid secretion in mouse when administered orally 85-100 min prior to pentagastrin; assay type: functional; conditions: po

Compound | IC50 [1] | Selectivity ratio [2] | other results
CN1C(=O)C(NC(=O)Nc2cccc(C(F)(F)F)c2)N=C(c2ccccc2)c2ccccc21 (stereo unspecified) | 740 nM | 195 | concentration at 0.5 h [3]: 120 ng/mL; concentration at 2 h [4]: 102 ng/mL
CN1C(=O)C(NC(=O)Nc2ccc(Cl)nc2)N=C(c2ccccc2)c2ccccc21 (stereo unspecified) | – | > 65 | inhibition [5]: 23%
CN1C(=O)C(NC(=O)Nc2ccc3c(c2)OCO3)N=C(c2ccccc2)c2ccccc21 (stereo unspecified) | – | > 100 | inhibition [5]: > 3%
Cc1cccc(NC(=O)NC2N=C(c3ccccc3)c3ccccc3N(CC(=O)ON3CCC[C@@H]3C(=O)O)C2=O)c1 (mixture of isomers) | 20000 nM | 15 | –
CCN(CC)C[C@H](O)CN1C(=O)C(NC(=O)Nc2ccc(Cl)cc2)N=C(c2ccccc2)c2ccccc21 (mixture of isomers) | – | > 7 | inhibition [5]: > 14%
O=C(Nc1ccc(Cl)cc1)NC1N=C(c2ccccc2)c2ccccc2N(C[C@@H](O)CCl)C1=O (mixture of isomers) | – | > 500 | inhibition [5]: > 15%
O=C(Nc1ccc(Cl)cc1)NC1N=C(c2ccccc2)c2ccccc2N(C[C@@H](O)CN2CCCC2)C1=O (mixture of isomers) | – | > 10 | inhibition [5]: > 16%
O=C(Nc1ccc(Cl)cc1)NC1N=C(c2ccccc2)c2ccccc2N(C[C@@H](O)CO)C1=O (mixture of isomers) | – | > 30 | inhibition [5]: > 9%
COc1cccc(NC(=O)NC2N=C(c3ccccc3)c3ccccc3N(CCC(=O)O)C2=O)c1 (racemic) | 9 nM | 0.036 | –
CN1C(=O)C(NC(=O)Nc2ccncc2)N=C(c2ccccc2)c2ccccc21 (racemic) | 1510 nM | 1.4 | –
Cc1cccc(NC(=O)NC2N=C(c3ccccc3)c3ccccc3N(CCOC(=O)CCC(=O)O)C2=O)c1 (racemic) | 37 nM | 5 | –
Cc1ccc(NC(=O)NC2N=C(c3ccccc3)c3ccccc3N(CC(=O)Nc3ccncc3)C2=O)cc1 (racemic) | 4000 nM | 21 | –
Cc1cccc(NC(=O)NC2N=C(c3ccncc3)c3ccccc3N(C)C2=O)c1 (racemic) | 390 nM | 7.5 | –
CN1C(=O)C(NC(=O)Nc2cccc(-c3ccccc3)c2)N=C(c2ccccc2)c2ccccc21 (racemic) | 123 nM | 1 | –
CCN(CC)CC(=O)OCCN1C(=O)C(NC(=O)Nc2cccc(C)c2)N=C(c2ccccc2)c2ccccc21 (racemic) | 190 nM | 34 | –
CN1C(=O)C(NC(=O)Nc2cccc3ccccc23)N=C(c2ccccc2)c2ccccc21 (racemic) | 68 nM | 0.9 | –
COc1cccc(NC(=O)NC2N=C(c3ccccc3)c3ccccc3N(CC(=O)N3CCN(C)CC3)C2=O)c1 (racemic) | 1400 nM | 318 | –
CN1C(=O)C(NC(N)=O)N=C(c2ccccc2)c2ccccc21 (racemic) | 55000 nM | > 0.5 | –
Cc1cccc(NC(=O)NC2N=C(c3ccccc3)c3ccccc3N(CCN(C)C)C2=O)c1 (racemic) | 1890 nM | 73 | concentration at 0.5 h [3]: 75 ng/mL
Cc1cccc(NC(=O)NC2N=C(c3ccccc3)c3cccnc3N(C)C2=O)c1 (racemic) | 104 nM | < 0.01 | –
O=C(Nc1ccc(Cl)cc1)NC1N=C(c2ccccc2)c2ccccc2NC1=O (racemic) | 110 nM | 0.4 | –
Cc1cccc(NC(=O)NC2N=C(c3ccccc3)c3ccncc3N(C)C2=O)c1 (racemic) | 144 nM | < 0.01 | –
CN1C(=O)C(NC(=O)Nc2cccc(C(=O)O)c2)N=C(c2ccccc2)c2ccccc21 (racemic) | 14 nM | 1.4 | –
CCN(CC)C(=O)C(C)N1C(=O)C(NC(=O)Nc2ccc(Cl)cc2)N=C(c2ccccc2)c2ccccc21 (racemic) | 410 nM | 19 | –

Compound | IC50 [1] | Selectivity ratio [2] | other results
CCN(CC)C(=O)CN1C(=O)C(NC(=O)Nc2ccccc2Cl)N=C(c2ccccc2)c2ccccc21 (racemic) | 200 nM | 53 | –
Cc1cccc(NC(=O)NC2N=C(c3ccccc3)c3ccccc3N(CC(=O)O)C2=O)c1 (racemic) | 7.6 nM | 0.02 | –
CCOC(=O)CCN1C(=O)C(NC(=O)Nc2cccc(OC)c2)N=C(c2ccccc2)c2ccccc21 (racemic) | 340 nM | 340 | –
Cc1cccc(NC(=O)NC2N=C(c3ccccc3)c3ccccc3N(Cc3n[nH]c(C)n3)C2=O)c1 (racemic) | 566 nM | 58 | –
CN1C(=O)C(NC(=O)Nc2ccc3ncccc3c2)N=C(c2ccccc2)c2ccccc21 (racemic) | 310 nM | 6 | –
CCN(CC)C(=O)CN1C(=O)C(NC(=O)Nc2cccc(OC)c2)N=C(c2ccccc2)c2ccccc21 (racemic) | 120 nM | 545 | –
COc1ccc(NC(=O)NC2N=C(c3ccccc3)c3ccccc3N(C)C2=O)cc1 (racemic) | 165 nM | 6 | –
COc1cccc(NC(=O)NC2N=C(c3ccccc3)c3ccccc3N(CCN(C)C)C2=O)c1 (racemic) | 3090 nM | 16 | –
COc1cccc(NC(=O)NC2N=C(c3ccccc3)c3ccccc3N(CC(=O)N3CCCC3)C2=O)c1 (racemic) | 170 nM | 708 | –
CCN(CC)C(=O)CN1C(=O)C(NC(=O)Nc2cccc(C)c2)N=C(c2ccccn2)c2ccccc21 (racemic) | 435 nM | 776 | –
Cc1cccc(NC(=O)NC2N=C(c3ccccc3)c3ccccc3N(CC(=O)Nc3ccncc3)C2=O)c1 (racemic) | 1100 nM | 23 | –
Cc1cccc(NC(=O)NC2N=C(c3cccnc3)c3ccccc3N(C)C2=O)c1 (racemic) | 2300 nM | 25 | concentration at 0.5 h [3]: 219 ng/mL; concentration at 2 h [4]: 191 ng/mL
CN1C(=O)C(NC(=O)Nc2cccnc2)N=C(c2ccccc2)c2ccccc21 (racemic) | 120 nM | 0.4 | –
Cc1cccc(NC(=O)NC2N=C(c3ccccc3)c3cnccc3N(C)C2=O)c1 (racemic) | 61.4 nM | 0.1 | –
CN1C(=O)C(NC(=O)Nc2ccccn2)N=C(c2ccccc2)c2ccccc21 (racemic) | 447 nM | 1.3 | –
COc1cccc(NC(=O)NC2N=C(c3ccccc3)c3ccccc3N(CC[N+](C)(C)C)C2=O)c1 (racemic) | 17000 nM | 15 | –
Cc1cccc(NC(=O)NC2N=C(c3ccccc3)c3ccccc3N(CCO)C2=O)c1 (racemic) | 270 nM | 6 | concentration at 0.5 h [3]: 156 ng/mL; concentration at 2 h [4]: 95 ng/mL
Cc1cccc(NC(=O)NC2N=C(c3ccccc3)c3ccccc3N(CC(=O)N3CC[N+](C)(C)CC3)C2=O)c1 (racemic) | 6200 nM | 107 | –
CCOC(=O)CN1C(=O)C(NC(=O)c2ccc(Cl)cc2)N=C(c2ccccc2F)c2ccccc21 (racemic) | – | 0.06 | IC50 [6]: 1900 nM
CN1C(=O)C(NC(=O)Nc2ccc(Cl)cc2)N=C(c2ccccc2)c2ccccc21 (racemic) | 1200 nM | 15 | –
CCOC(=O)CN1C(=O)C(NC(=O)Nc2ccc(Cl)cc2)N=C(c2ccccc2F)c2ccccc21 (racemic) | – | 183 | IC50 [6]: 1.2 nM; ED50 [7]: 0.7 mg/kg; ED50 [8]: > 2 mg/kg; ED50 [9]: 6 mg/kg
O=C(Nc1ccc(Cl)cc1)NC1N=C(c2ccccc2)c2ccccc2N(CC(=O)N2CCCC2)C1=O (racemic) | 1000 nM | 625 | –
Cc1cccc(NC(=O)NC2N=C(c3ccccc3)c3ccccc3N(CC(=O)N3CCN(C)CC3)C2=O)c1 (racemic) | 760 nM | 217 | –
Cc1cccc(NC(=O)N[C@@H]2N=C(c3ccccc3)c3ccccc3N(C)C2=O)c1 [L-365260] | – | – | concentration at 0.5 h [3]: 172 ng/mL; concentration at 2 h [4]: 194 ng/mL
